Our source for the inhibition values is ChEMBL document CHEMBL3132769, “Fragment growing to retain or alter the selectivity of anchored kinase hinge-binding fragments” (Medchemcomm, 2014).

Experiment [1] deals with T1, Serine/threonine-protein kinase Nek2 (Homo sapiens) (UniProt P51955).
T1 sequence (whole entry): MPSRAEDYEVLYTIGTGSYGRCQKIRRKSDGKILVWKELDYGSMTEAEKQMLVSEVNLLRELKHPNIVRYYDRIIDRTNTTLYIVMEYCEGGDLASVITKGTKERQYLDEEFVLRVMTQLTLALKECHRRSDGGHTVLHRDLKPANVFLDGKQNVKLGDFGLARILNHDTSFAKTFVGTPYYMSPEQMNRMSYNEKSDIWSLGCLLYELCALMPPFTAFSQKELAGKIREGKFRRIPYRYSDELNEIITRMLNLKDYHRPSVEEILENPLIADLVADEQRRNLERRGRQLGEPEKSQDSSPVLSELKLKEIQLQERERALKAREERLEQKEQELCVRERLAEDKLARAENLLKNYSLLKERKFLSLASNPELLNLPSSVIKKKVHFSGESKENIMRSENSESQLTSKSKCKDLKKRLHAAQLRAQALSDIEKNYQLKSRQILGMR
Nature of the experiment: Inhibition of human full length NEK2 expressed in baculovirus assessed as substrate phosphorylation using fluorescence-labelled peptides as substrate at 2 uM after 90 mins by microfluidic peptide phosphorylation assay.

The target in experiment [2] is Platelet-derived growth factor receptor alpha (Homo sapiens) (UniProt P16234). Nature of the experiment: Inhibition of human PDGFR alpha catalytic domain expressed in baculovirus assessed as substrate phosphorylation using fluorescence-labelled peptides as substrate at 0.1 uM after 90 mins by microfluidic peptide phosphorylation assay.
Chain of Platelet-derived growth factor receptor alpha (Homo sapiens) (P16234 whole entry, the tested form may be a part): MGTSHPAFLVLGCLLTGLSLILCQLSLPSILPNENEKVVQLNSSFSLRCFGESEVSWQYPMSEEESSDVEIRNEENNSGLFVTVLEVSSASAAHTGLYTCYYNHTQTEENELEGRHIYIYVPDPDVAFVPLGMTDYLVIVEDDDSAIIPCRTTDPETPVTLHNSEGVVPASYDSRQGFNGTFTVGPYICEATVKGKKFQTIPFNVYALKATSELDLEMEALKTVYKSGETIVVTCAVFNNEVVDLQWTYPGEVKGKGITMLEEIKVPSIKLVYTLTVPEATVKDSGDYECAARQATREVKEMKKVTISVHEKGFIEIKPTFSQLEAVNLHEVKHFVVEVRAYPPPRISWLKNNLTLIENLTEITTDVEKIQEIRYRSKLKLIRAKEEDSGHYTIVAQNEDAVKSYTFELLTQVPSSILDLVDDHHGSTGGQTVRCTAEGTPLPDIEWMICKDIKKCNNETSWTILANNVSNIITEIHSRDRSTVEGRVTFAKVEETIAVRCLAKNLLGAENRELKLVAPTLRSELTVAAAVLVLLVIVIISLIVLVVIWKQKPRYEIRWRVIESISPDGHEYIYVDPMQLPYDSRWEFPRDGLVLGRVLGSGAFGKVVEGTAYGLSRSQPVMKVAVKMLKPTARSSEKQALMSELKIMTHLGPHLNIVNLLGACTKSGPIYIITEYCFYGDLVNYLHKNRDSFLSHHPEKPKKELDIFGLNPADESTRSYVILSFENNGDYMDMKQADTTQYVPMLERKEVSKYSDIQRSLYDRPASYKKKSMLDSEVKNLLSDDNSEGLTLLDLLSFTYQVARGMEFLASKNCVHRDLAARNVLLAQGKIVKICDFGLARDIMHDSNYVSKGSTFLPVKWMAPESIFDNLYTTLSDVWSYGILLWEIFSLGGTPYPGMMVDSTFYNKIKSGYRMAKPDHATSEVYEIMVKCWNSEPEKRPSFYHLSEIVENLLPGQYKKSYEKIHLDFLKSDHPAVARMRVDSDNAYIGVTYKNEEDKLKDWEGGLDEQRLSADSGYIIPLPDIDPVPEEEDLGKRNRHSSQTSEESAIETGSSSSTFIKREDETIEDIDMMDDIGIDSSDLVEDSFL
Experiment [3] concerns the target Protein kinase C theta type (Homo sapiens) (UniProt Q04759). Nature of the experiment: Inhibition of human truncated PKC theta expressed in baculovirus assessed as substrate phosphorylation using fluorescence-labelled peptides as substrate at 0.1 uM after 90 mins by microfluidic peptide phosphorylation assay.
The target in experiment [4] is Cyclin-dependent kinase 2 (Homo sapiens) (UniProt P24941). Nature of the experiment: Inhibition of human full length CDK2 expressed in baculovirus assessed as substrate phosphorylation using fluorescence-labelled peptides as substrate at 0.2 uM after 90 mins by microfluidic peptide phosphorylation assay.
Experiment [5] deals with Protein kinase C gamma type (Homo sapiens) (UniProt P05129). Nature of the experiment: Inhibition of human truncated PKC gamma expressed in baculovirus assessed as substrate phosphorylation using fluorescence-labelled peptides as substrate at 0.06 uM after 90 mins by microfluidic peptide phosphorylation assay.
Experiment [6] addresses Ribosomal protein S6 kinase alpha-4 (Homo sapiens) (UniProt O75676). Nature of the experiment: Inhibition of human full length MSK2 expressed in baculovirus assessed as substrate phosphorylation using fluorescence-labelled peptides as substrate at 9 uM after 90 mins by microfluidic peptide phosphorylation assay.
In experiment [7] the target is Platelet-derived growth factor receptor alpha (Homo sapiens) (UniProt P16234). Nature of the experiment: Inhibition of human PDGFR alpha catalytic domain expressed in baculovirus assessed as substrate phosphorylation using fluorescence-labelled peptides as substrate at 9 uM after 90 mins by microfluidic peptide phosphorylation assay.
Experiment [8] deals with Tyrosine-protein kinase Fyn (Homo sapiens) (UniProt P06241). The experiment in a line: Inhibition of human full length FYN expressed in baculovirus assessed as substrate phosphorylation using fluorescence-labelled peptides as substrate at 95 uM after 90 mins by microfluidic peptide phosphorylation assay.
Chain of Tyrosine-protein kinase Fyn (Homo sapiens) (P06241 2-537 limits assumed): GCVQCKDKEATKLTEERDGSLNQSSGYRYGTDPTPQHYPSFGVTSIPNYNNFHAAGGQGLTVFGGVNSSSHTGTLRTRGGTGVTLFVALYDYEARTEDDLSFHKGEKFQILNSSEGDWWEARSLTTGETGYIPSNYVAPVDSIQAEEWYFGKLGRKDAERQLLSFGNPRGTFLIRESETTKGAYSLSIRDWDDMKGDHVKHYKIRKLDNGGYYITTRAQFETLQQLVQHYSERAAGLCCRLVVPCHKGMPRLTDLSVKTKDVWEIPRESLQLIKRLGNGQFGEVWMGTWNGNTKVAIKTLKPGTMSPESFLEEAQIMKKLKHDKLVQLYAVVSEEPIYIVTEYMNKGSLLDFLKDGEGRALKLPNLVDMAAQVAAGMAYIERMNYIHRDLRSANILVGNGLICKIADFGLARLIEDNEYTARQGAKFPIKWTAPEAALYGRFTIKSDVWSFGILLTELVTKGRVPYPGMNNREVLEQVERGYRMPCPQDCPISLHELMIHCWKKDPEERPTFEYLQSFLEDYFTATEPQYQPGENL
In experiment [9] the target is Cyclin-dependent kinase 2 (Homo sapiens) (UniProt P24941). Nature of the experiment: Inhibition of human full length CDK2 expressed in baculovirus assessed as substrate phosphorylation using fluorescence-labelled peptides as substrate at 95 uM after 90 mins by microfluidic peptide phosphorylation assay.
The target in experiment [10] is Serine/threonine-protein kinase MARK1 (Homo sapiens) (UniProt Q9P0L2). Nature of the experiment: Inhibition of human full length MARK1 expressed in baculovirus assessed as substrate phosphorylation using fluorescence-labelled peptides as substrate at 8 uM after 90 mins by microfluidic peptide phosphorylation assay.
Chain of Serine/threonine-protein kinase MARK1 (Homo sapiens) (Q9P0L2 whole entry, looked up): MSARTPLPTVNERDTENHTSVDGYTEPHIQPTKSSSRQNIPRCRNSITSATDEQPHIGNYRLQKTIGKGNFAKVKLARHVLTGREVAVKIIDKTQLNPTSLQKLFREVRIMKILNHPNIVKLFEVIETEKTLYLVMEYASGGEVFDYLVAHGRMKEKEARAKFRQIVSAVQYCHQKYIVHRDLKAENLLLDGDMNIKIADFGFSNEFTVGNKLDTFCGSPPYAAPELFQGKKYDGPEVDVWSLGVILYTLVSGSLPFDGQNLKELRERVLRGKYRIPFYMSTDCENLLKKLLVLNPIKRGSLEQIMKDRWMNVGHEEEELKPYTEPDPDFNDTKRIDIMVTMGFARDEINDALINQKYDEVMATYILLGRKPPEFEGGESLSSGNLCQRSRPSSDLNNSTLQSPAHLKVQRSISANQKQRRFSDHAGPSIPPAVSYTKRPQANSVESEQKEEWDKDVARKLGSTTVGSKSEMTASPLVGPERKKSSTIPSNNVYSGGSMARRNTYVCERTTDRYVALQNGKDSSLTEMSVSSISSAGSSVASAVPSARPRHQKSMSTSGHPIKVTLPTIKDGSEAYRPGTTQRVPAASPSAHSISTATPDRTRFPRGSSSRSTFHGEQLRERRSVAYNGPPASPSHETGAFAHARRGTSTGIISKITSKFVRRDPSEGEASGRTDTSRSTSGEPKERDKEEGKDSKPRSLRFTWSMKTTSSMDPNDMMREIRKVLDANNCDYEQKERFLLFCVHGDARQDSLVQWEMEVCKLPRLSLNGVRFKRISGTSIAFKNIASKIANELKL
The target in experiment [11] is T2, Serine/threonine-protein kinase Sgk2 (Homo sapiens) (UniProt Q9HBY8).
T2 sequence (whole entry): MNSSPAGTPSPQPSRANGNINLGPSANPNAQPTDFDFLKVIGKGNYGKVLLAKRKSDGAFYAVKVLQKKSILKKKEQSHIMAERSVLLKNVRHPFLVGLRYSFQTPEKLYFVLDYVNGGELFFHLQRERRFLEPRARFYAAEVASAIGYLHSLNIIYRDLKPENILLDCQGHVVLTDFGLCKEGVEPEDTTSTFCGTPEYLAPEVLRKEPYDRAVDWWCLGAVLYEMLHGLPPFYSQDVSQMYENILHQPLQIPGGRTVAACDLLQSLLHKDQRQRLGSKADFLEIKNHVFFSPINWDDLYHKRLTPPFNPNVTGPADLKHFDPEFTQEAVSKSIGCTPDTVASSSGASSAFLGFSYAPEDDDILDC
The experiment in a line: Inhibition of human full length SGK2 expressed in baculovirus assessed as substrate phosphorylation using fluorescence-labelled peptides as substrate at 70 uM after 90 mins by microfluidic peptide phosphorylation assay.

Experiment [12] deals with T3, Interleukin-1 receptor-associated kinase 4 (Homo sapiens) (UniProt Q9NWZ3).
T3 sequence (whole entry): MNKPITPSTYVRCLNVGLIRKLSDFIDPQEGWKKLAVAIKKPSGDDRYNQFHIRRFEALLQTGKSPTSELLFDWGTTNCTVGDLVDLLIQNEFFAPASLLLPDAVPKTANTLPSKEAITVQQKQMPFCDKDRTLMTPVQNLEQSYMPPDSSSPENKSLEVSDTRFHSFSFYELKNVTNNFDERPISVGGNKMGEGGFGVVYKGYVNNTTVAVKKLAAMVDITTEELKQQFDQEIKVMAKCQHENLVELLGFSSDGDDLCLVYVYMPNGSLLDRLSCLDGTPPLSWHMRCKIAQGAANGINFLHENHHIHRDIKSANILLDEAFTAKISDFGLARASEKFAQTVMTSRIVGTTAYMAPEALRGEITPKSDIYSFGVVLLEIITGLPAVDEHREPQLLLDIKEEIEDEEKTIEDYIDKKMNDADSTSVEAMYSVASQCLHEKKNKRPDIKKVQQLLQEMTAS
The experiment in a line: Inhibition of human IRAK4 catalytic domain expressed in baculovirus assessed as substrate phosphorylation using fluorescence-labelled peptides as substrate at 420 uM after 90 mins by microfluidic peptide phosphorylation assay.

The target in experiment [13] is Serine/threonine-protein kinase MARK2 (Homo sapiens) (UniProt Q7KZI7). Nature of the experiment: Inhibition of human full length MARK2 expressed in baculovirus assessed as substrate phosphorylation using fluorescence-labelled peptides as substrate at 420 uM after 90 mins by microfluidic peptide phosphorylation assay.
Chain of Serine/threonine-protein kinase MARK2 (Homo sapiens) (Q7KZI7 whole entry): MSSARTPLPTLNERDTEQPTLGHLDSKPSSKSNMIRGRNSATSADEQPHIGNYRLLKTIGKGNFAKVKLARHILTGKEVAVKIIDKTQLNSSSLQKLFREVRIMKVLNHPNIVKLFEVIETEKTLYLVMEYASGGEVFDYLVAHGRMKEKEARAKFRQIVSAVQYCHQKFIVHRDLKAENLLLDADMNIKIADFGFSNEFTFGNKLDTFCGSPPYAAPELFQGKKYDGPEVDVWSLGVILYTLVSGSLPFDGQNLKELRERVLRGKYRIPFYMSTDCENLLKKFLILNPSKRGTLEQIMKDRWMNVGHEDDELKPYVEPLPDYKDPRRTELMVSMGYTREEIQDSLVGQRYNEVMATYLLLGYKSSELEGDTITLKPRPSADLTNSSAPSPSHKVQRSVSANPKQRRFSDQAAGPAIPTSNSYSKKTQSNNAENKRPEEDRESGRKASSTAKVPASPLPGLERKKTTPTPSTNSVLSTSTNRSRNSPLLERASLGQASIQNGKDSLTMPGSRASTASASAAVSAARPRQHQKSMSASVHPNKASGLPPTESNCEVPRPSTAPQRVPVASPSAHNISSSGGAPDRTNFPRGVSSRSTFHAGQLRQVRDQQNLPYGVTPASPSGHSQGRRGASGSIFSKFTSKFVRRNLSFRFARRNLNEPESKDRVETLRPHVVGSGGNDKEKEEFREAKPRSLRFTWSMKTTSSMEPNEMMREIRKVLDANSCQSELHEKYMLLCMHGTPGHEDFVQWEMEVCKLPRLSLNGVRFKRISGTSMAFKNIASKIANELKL

Chain of Protein kinase C theta type (Homo sapiens) (Q04759 whole entry, looked up, the tested form may be a part): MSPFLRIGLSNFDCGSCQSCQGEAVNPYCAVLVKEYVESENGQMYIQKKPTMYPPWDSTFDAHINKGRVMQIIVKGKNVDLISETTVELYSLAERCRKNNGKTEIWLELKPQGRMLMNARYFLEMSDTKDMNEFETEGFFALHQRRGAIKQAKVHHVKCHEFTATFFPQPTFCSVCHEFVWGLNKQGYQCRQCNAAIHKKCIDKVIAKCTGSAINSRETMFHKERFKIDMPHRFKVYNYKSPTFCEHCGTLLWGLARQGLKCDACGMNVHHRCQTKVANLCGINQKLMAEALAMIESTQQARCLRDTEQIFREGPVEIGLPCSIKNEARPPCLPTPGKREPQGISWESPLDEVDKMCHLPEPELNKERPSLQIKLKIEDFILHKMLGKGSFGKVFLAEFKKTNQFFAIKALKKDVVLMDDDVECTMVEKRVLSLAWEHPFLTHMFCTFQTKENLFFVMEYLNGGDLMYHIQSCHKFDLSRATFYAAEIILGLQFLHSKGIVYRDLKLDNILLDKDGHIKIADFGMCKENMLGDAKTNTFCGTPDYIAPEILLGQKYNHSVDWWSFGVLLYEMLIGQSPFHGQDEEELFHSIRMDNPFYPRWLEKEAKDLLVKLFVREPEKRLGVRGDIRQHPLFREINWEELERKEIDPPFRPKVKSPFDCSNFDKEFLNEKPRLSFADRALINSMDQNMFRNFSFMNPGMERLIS

Broadly, the inhibition is the share of the control response that was lost under treatment. Consider `NC1CCN(c2ncnc3[nH]ccc23)CC1`, for which, in [1], the inhibition amounted to 0%.

Take `C[C@H](CN(C)C)Oc1nc(Nc2cc3cccc(Cl)c3cn2)cnc1C#N`: the inhibition was 8.5% in [2] and 5% in experiment [3].

In the case of `Clc1ccc(C2(c3ccc(-c4ncnc5[nH]cnc45)cc3)CCNCC2)cc1`, the inhibition in experiment [4] amounted to 7.5%.

Turning to `NC1(Cc2ccc(Cl)cc2)CCN(c2ncnc3[nH]ccc23)CC1`, the inhibition in [5] was 3.5%.

Consider `NCC1CN(c2ncnc3[nH]c4cnccc4c23)CCO1` (stereo not drawn), for which the inhibition in [6] stood at 52%; in experiment [7], 23%.

Turning to `NCCc1ccc(-c2ncnc3[nH]cnc23)cc1`, the inhibition in experiment [8] is 64.5%; in [9] it was 39.5%.

As for `NCC1CCN(c2ncnc3[nH]ccc23)CC1`, the inhibition in experiment [10] came out at 74%.

In the case of `CNCc1ccc(-c2ncnc3[nH]cnc23)cc1`, in experiment [11], the inhibition was 74%.

`c1nc(N2CCOCC2)c2nc[nH]c2n1`: the inhibition in experiment [12] was determined as 74.5%; in [13], 88%.
